Measurements as given in patent US12509460B2 (Skyhawk Therapeutics, Inc., priority 2019, dated 2025).
Like-named read-outs stand apart in the source and are kept apart here.

Tests used:
[1] = test system: MDR1-MDCK cell monolayers; conditions: dog, MDCK-MDR1, 120 min, 5 μM, pH 7.4
[2] = test system: SMN protein in spinal muscular atrophy (SMA) patient fibroblasts (GM03813, Coriell); experiment: SMN protein assay, Mesoscale Discovery (MSD); assay type: cell-based, human; conditions: for EC50: read-out: SMN2 protein EC50
Summary of the method: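 SMA patient fibroblasts (GM03813) seeded at 7000 cells/well and exposed to compound at 2.5 μM to 0.6 nM for 48 hours. Lysates assayed for SMN by MSD immunoassay, with absolute SMN amount calculated from a per-plate SMN standard curve (1 μg/ml to 19.5 pg/ml).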

MDR1 [3] = experiment: in vitro; conditions: dog, MDCK-MDR1, pH 7.4
MDR1 (P-gp) [4] = experiment: in vitro; conditions: dog, MDCK-MDR1, pH 7.4
[5] = test system: mHTT protein in GM04724 (CAG 70/20) Huntington's disease patient lymphoblast cells; experiment: mHTT protein assay, 2B7-MW1 assay via Mesoscale Discovery (MSD); assay type: cell-based, human; conditions: for mHTT protein EC50: GM04724 Huntington's disease patient lymphoblasts; for EC50: GM04724 (CAG 70/20) Huntington's disease patient lymphoblasts
Summary of the method: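 Patient lymphoblasts treated 48 h with compound from 10 μM to 0.6 nM. mHTT quantified by MSD 2B7-MW1 immunoassay, whose signal depends on polyQ expansion and HTT size. Viability measured on a replicate plate by CellTiter Glo.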

MDR1 [6] = experiment: Blood-brain-barrier (BBB) penetration potential via MDCK-MDR1 permeability assay; conditions: dog, MDCK-MDR1, pH 7.4, MDCK-MDR1: Efflux
[7] = test system: MDR1-MDCK cell monolayers; experiment: as above
MDR1 (P-gp) [8] = experiment: as above; conditions: dog; for Papp A→B at 120 min, 5 μM: MDCK-MDR1, pH 7.4, MDCK-MDR1: Papp A-B; for Papp B→A at 120 min, 5 μM: MDCK-MDR1, pH 7.4, MDCK-MDR1: Papp B-A
[9] = test system: SMN FL and SMN Δ7 in spinal muscular atrophy (SMA) patient fibroblasts (GM03813, Coriell); experiment: Quantitative splicing assay (SMN), qPCR; assay type: cell-based, human; conditions: Homo sapiens, Fibroblast, 24 h, SMA patient fibroblasts (GM03813), 24 h; read-out: SMN2 Splicing FL EC50
Protocol: Spinal muscular atrophy (SMA) patient fibroblasts (GM03813, Coriell) are plated in 96-well plates at 50,000 cells/well. […] Treated cells are lysed and cDNA synthesized using the Fast Advanced Cells-to-Ct kit (Thermofisher A35378) according to the manufacturer's instructions. 2 μL of each cDNA are used in qPCR reactions. […] Reactions are run in a Quant Studio 6 qPCR instrument with default settings.

[10] = Quantitative splicing assay (HTT), qPCR; assay type: cell-based, human; conditions: Homo sapiens, GM04724, 24 h, GM04724 lymphoblasts, read-out: HTT Splicing: E49-50 EC50
Summary of the method: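 Patient lymphoblasts (50,000 cells/well) dosed immediately after plating for 24 h at 2.5 uM to 0.15 nM in 0.1% DMSO. Lysed, cDNA made directly from cells, and inclusion of the intron 49 cryptic exon quantified by TaqMan qPCR.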

[11] = SMA patient fibroblasts (GM03813), 48 hours
[12] = SMA patient fibroblasts GM03813, 48 hours, MSD

| Compound | MDCK-MDR1: % Recov A-B [1] [%] | MDCK-MDR1: % Recov B-A [1] [%] | SMN2 protein EC50 [2, 11] | efflux ratio at 120 min, 5 μM (MDR1 [3]) | Papp A→B at 120 min, 5 μM (MDR1 (P-gp) [4]) [×10⁻⁶ cm/s] | Papp B→A at 120 min, 5 μM (MDR1 (P-gp) [4]) [×10⁻⁶ cm/s] | mHTT protein EC50 [5] | SMN2 protein EC50 [2, 12] | EC50 [5] [nM] | efflux ratio at 120 min, 5 μM (MDR1 [6]) | MDCK-MDR1: % Recov A-B [7] [%] | MDCK-MDR1: % Recov B-A [7] [%] | Papp A→B at 120 min, 5 μM (MDR1 (P-gp) [8]) [×10⁻⁶ cm/s] | Papp B→A at 120 min, 5 μM (MDR1 (P-gp) [8]) [×10⁻⁶ cm/s] | EC50 [9] [nM] | EC50 [2, 11] [nM] | EC50 [10] [nM] |
| --- | --- | --- | --- | --- | --- | --- | --- | --- | --- | --- | --- | --- | --- | --- | --- | --- | --- |
| CN(c1ccc(-c2cnc(-c3cnn(C)c3)nc2O)nn1)[C@H]1C[C@@H]2CC[C@@H](N2)[C@H]1F (racemic) [Compound 122, rac-5-(6-(((1R,2R,3S,5S)-2-fluoro-8-azabicyclo[3.2.1]octan-3-yl)(methyl)amino)pyridazin-3-yl)-2-(1-methyl-1H-pyrazol-4-yl)pyrimidin-4-ol] | 86 | 98 | E (501 ≤ E ≤ 10.000) | > 3 | < 0.2 | 0.6 |  |  |  |  |  |  |  |  |  |  |  |
| CN(c1ccc(-c2ccc(C3CC3)cc2O)nn1)[C@@H]1C[C@H]2CC[C@H](N2)[C@@H]1F (single isomer, unassigned) [Compound 31A] | 45 | 66 |  | 4 | 8.77 | 31.3 | E (501 ≤ E ≤ 10.000) | E (501 ≤ E ≤ 10.000) |  |  |  |  |  |  |  |  |  |
| CN(c1ccc(-c2ccc(C3CC3)cc2O)nn1)[C@H]1C[C@@H]2CC[C@@H](N2)[C@H]1F (single isomer, unassigned) [Compound 31B] | 43 | 74 |  | 4 | 7.08 | 27 | E (501 ≤ E ≤ 10.000) | E (501 ≤ E ≤ 10.000) |  |  |  |  |  |  |  |  |  |
| CC(=O)Nc1ccc(-c2ccc(N(C)[C@@H]3C[C@H]4CC[C@H](N4)[C@@H]3F)nn2)c(O)c1 (single isomer, unassigned) [Compound 32A] | 90 | 98 |  | 59 | 0.34 | 20.2 | E (501 ≤ E ≤ 10.000) | E (501 ≤ E ≤ 10.000) |  |  |  |  |  |  |  |  |  |
| Cc1nc2cc(O)c(-c3ccc(N(C)[C@H]4C[C@@H]5CC[C@@H](N5)[C@H]4F)nn3)cc2s1 [Compound 116B, 6-(6-(((1R,2R,3S,5S)-2-fluoro-8-azabicyclo[3.2.1]octan-3-yl)(methyl)amino)pyridazin-3-yl)-2-methylbenzo[d]thiazol-5-ol] |  |  |  |  |  |  |  |  | 0.01 to 15 | 7 | 77 | 80 | 6.29 | 43.2 | 0.01 to 15 | 0.01 to 15 | 0.01 to 15 |
| Cc1nc2cc(O)c(-c3ccc(N(C)[C@@H]4C[C@H]5CC[C@H](N5)[C@@H]4F)nn3)cc2o1 [Compound 117A, 6-(6-(((1S,2S,3R,5R)-2-fluoro-8-azabicyclo[3.2.1]octan-3-yl)(methyl)amino)pyridazin-3-yl)-2-methylbenzo[d]oxazol-5-ol] |  |  |  |  |  |  |  |  | 16 to 50 | 6 | 84 | 97 | 6.87 | 39.9 | 101 to 500 | 16 to 50 | 51 to 100 |
| Cc1nc2cc(O)c(-c3ccc(N(C)[C@H]4C[C@@H]5CC[C@@H](N5)[C@H]4F)nn3)cc2o1 [Compound 117B, 6-(6-(((1R,2R,3S,5S)-2-fluoro-8-azabicyclo[3.2.1]octan-3-yl)(methyl)amino)pyridazin-3-yl)-2-methylbenzo[d]oxazol-5-ol] |  |  |  |  |  |  |  |  | 0.01 to 15 | 10 | 90 | 86 | 4.32 | 45 | 16 to 50 | 0.01 to 15 | 16 to 50 |
| CN(c1ccc(-c2cc3cnccc3cc2O)nn1)[C@H]1C[C@@H]2CCC[C@@H](N2)[C@H]1F [Compound 121B, 7-(6-(((1R,2R,3S,5S)-2-fluoro-9-azabicyclo[3.3.1]nonan-3-yl)(methyl)amino)pyridazin-3-yl)isoquinolin-6-ol] |  |  |  |  |  |  |  |  | 0.01 to 15 | 9 | 83 | 111 | 4.47 | 39.5 | 0.01 to 15 | 0.01 to 15 | 0.01 to 15 |
